Publication PMC8125234, “Cardiolipin Stabilizes and Increases Catalytic Efficiency of Carnitine Palmitoyltransferase II and Its Variants S113L, P50H, and Y479F” (International Journal of Molecular Sciences, 2021)
Numbering of substitutions follows the chain as printed.

What was measured:
CPT II variant S113L [1] = target: T1, CPT II variant S113L (Homo sapiens, UniProt P23786, S113L); experiment: nanoDSF protein stability in presence of CL or β-OG; assay type: binding
T1 construct: made in house; host or cells: Escherichia coli BL21Gold DE
T1 sequence (P23786 26-658 S113L): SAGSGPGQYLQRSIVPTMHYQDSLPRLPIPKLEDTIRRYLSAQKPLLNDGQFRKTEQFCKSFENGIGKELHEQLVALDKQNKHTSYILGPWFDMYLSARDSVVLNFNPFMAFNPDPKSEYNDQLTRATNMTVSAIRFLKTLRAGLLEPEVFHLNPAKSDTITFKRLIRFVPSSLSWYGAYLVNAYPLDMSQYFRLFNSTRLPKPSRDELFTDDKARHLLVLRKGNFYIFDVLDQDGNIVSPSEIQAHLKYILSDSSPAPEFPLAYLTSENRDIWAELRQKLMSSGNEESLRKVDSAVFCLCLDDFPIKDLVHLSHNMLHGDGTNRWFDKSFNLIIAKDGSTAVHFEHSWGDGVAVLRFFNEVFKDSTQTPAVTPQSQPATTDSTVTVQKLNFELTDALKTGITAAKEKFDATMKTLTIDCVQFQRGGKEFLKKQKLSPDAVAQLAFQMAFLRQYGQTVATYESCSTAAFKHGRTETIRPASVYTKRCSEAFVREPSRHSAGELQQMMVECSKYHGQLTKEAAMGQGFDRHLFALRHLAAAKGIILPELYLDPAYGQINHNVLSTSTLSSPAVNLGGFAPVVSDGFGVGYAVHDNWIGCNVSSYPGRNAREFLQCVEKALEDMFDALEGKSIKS
Protocol: (§1) NanoDSF is a standard method for the investigation of the folding/unfolding of proteins and the interaction of proteins with effectors/ligands/substrates
(§2) The protein stability was investigated applying nano differential scanning fluorimetry (nanoDSF) using a protein concentration of 1 mg/mL in assay buffer. […] The heating rate has been set to 1 °C per min. A heating ramp from 15 to 95 °C was determined. The nanoDSF data were obtained using a Prometheus NT.48 device. First derivatives were calculated using PR.ThermControl software (NanoTemper Technologies GmbH, Munich, Germany). Experiments were performed at least three times independently as double determination.

CPT II variant Y479F [2] = target: T2, CPT II variant Y479F (Homo sapiens, UniProt P23786, Y479F); experiment: as above; assay type: binding
T2 construct: made in house; host or cells: Escherichia coli BL21Gold DE
T2 sequence (P23786 26-658 Y479F): T1 sequence (P23786 26-658 S113L) with L88S, Y454F
Protocol: as §1, §2

CPT II WT [3] = target: T3, CPT II WT (Homo sapiens, UniProt P23786); experiment: as above; assay type: binding
T3 construct: made in house; host or cells: Escherichia coli BL21Gold DE
T3 sequence (P23786 26-658): T1 sequence (P23786 26-658 S113L) with L88S
Protocol: as §1, §2

CPT II variant S113L [4] = target: T1, CPT II variant S113L; experiment: Lipid binding assay (membrane lipid strips); settings: 0.4 mg enzyme, 100 pmol lipid spots
Protocol: (§3) Direct interaction of CPT II WT and variants with phospholipids of the mitochondrial membrane was assessed using membrane lipid strips (Echelon Biosciences, Salt Lake City, Utah, USA). The membrane was spotted with 100 pmol of various cell membrane lipids. The assay was performed following manufacturer’s instructions with some modifications explained in the following. At first, the membrane was washed twice in phosphate buffered saline (PBS). After 1 h incubation with blocking solution (3% BSA fatty acid-free in PBS) at room temperature, the membrane was incubated with purified CPT II WT or variant (final amount 0.4 mg protein) for 2 h at 4 °C. After three washing steps, a-His-Probe (H3) mouse monoclonal antibody (Santa Cruz Biotech, Santa Cruz, CA, USA, 1:1000 dilution in PBS containing 3% BSA) was added to the membrane over night at 4 °C. The membrane was washed three times with PBS and incubated with mouse IgG horseradish peroxidase-linked whole antibody (from sheep, Amersham, Little Chalfont, Buckinghamshire, UK) for 1 h at 4 °C. The interaction was visualized by ECL Western blotting detection reagents (Amersham, Little Chalfont, Buckinghamshire, UK).

CPT II variant Y479F [5] = target: T2, CPT II variant Y479F; experiment: Lipid binding assay (membrane lipid strips); settings: 0.4 mg enzyme, 100 pmol lipid spots
Protocol: as §3

CPT II WT [6] = target: T3, CPT II WT; experiment: Lipid binding assay (membrane lipid strips); settings: 0.4 mg enzyme, 100 pmol lipid spots
Protocol: as §3

[7] = reference TM of WT in buffer (ΔTM = 0 °C)

Substance: Cardiolipin [CL]
- Increase of ΔTM-value due to the addition of CL (CPT II variant S113L [1]; 0.25 mM CL): +10 °C
- ∆TM in Buffer with 0.25 mM CL (CPT II variant S113L [1]; [7]): 6.5 ± 0.2 °C
- Increase of ΔTM-value due to the addition of CL (CPT II variant Y479F [2]; 0.25 mM CL): +10 °C
- TM in Buffer with 0.25 mM CL (CPT II variant Y479F [2]; 1 mg/mL protein): 45.9 ± 1.0 °C
- ∆TM in Buffer with 0.25 mM CL (CPT II variant Y479F [2]; [7]): 9.0 ± 0.1 °C
- Increase of ΔTM-value due to the addition of CL (CPT II WT [3]; 0.25 mM CL): +10 °C
- TM in Buffer with 0.25 mM CL (CPT II WT [3]; 1 mg/mL protein): 47.6 °C
- ∆TM in Buffer with 0.25 mM CL (CPT II WT [3]; [7]): 10.6 °C
- Signal for interaction on membrane lipid strips (CPT II variant S113L [4]): clearly proven
- Signal for interaction on membrane lipid strips (CPT II variant Y479F [5]): clearly proven
- Signal for interaction on membrane lipid strips (CPT II WT [6]): clearly proven
